{"source": "patent US20260256792A1", "about": "“TREATMENT OF CHRONIC SPONTANEOUS URTICARIA BY ADMINISTERING (R)-2-[3-[4-AMINO-3-(2-FLUORO-4-PHENOXY-PHENYL)PYRAZOLO[3,4-D]PYRIMIDIN-1-YL]PIPERIDINE-1-CARBONYL]-4-METHYL-4-[4-(OXETAN-3-YL)PIPERAZIN-1-YL]PENT-2-ENENITRILE” (priority 2023, published 2026)", "system": "moderate-to-severe chronic spontaneous urticaria (CSU)", "experiment": "Phase 2 CSU study: urticaria activity score over 7 days (UAS7)", "assay_type": "in vivo, human", "design": "key to UAS7 Median / UAS7 Change from baseline Median / UAS7 change from baseline, Q1 / UAS7 change from baseline, Q3 / UAS7 change from baseline, Max / UAS7 Change from baseline LS Mean (SE): UAS7 points; daily UAS score ranges 0–6 points/day, over 7 days", "text": "The study comprises a 12 week, randomized, double-blind, placebo-controlled, multi-center, dose-ranging efficacy and safety phase, followed by a 40 week open label extension (OLE) phase (see FIG. 1). The study consists of three phases and an optional OLE phase. […] Clinically, CSU is characterized by the spontaneous and recurrent appearance of pruritic hives. The proposed primary endpoints were the UAS7 at Week 12 in EU and EU reference countries and the ISS7 in the US. Regardless of where a participant was from, all assessments were the same. The UAS7 score is a composite score containing both the HSS7 and the ISS7. This allowed a global assessment of the two key components of urticaria: hives and itch. […] The UAS is a validated PRO measure. […] The daily UAS scores range from 0 to 6 point/day. […] Patients were to complete the UAS using the e-diary. […] The following secondary endpoints were to be analyzed using the same approach as for the primary endpoint: • Change from baseline in UAS7 at Week 4 • Change from baseline in UAS7 at Week 12 (for US and US reference countries) • Change from baseline in ISS7 at Week 12 (except US and US reference countries) • Change from baseline in HSS7 at Week 12 The following responder secondary endpoints were to be analyzed using the Cochran-Mantel-Haenszel test adjusted by region: • Proportion of participants with UAS7<6 at Week 12 • Proportion of participants with UAS7=0 at Week 12 Participants who received selected prohibited medications and/or rescue medications were to be considered as non-responders for time points after the medication usage. For other participants, all available data including those collected during the off-treatment period were to be used to determine the responder/non-responder status. Missing data were to be considered as non-responders.", "key": {"[1]": {"details": "Week 7, 400 mg BID, Prior Omalizumab Use"}, "[2]": {"details": "Week 7, 400 mg BID, omalizumab-naive participants"}, "[3]": {"details": "Week 7, 400 mg QPM, ITT population"}, "[4]": {"details": "Week 7, 400 mg QPM, Omalizumab-Naïve"}, "[5]": {"details": "Week 7, 400 mg QPM, Prior Omalizumab Use"}, "[6]": {"details": "Week 7, 400 mg QPM, omalizumab-naive participants"}, "[7]": {"details": "Week 7, 400 mg TID, ITT population"}, "[8]": {"details": "Week 7, 400 mg TID, Omalizumab-Naïve"}, "[9]": {"details": "Week 7, 400 mg TID, Prior Omalizumab Use"}, "[10]": {"details": "Week 7, 400 mg TID, omalizumab-naive participants"}, "[11]": {"details": "Week 8, 400 mg BID, ITT population"}, "[12]": {"details": "Week 8, 400 mg BID, Omalizumab-Naïve"}, "[13]": {"details": "Week 8, 400 mg BID, Prior Omalizumab Use"}, "[14]": {"details": "Week 8, 400 mg BID, omalizumab-naive participants"}}}
{"smiles": "CC(C)(C=C(C#N)C(=O)N1CCC[C@@H](n2nc(-c3ccc(Oc4ccccc4)cc3F)c3c(N)ncnc32)C1)N1CCN(C2COC2)CC1", "note": "[rilzabrutinib, (R)-2-[3-[4-amino-3-(2-fluoro-4-phenoxy-phenyl)pyrazolo[3,4-d]pyrimidin-1-yl]piperidine-1-carbonyl]-4-methyl-4-[4-(oxetan-3-yl)piperazin-1-yl]pent-2-enenitrile]", "values": [{"measurement": "UAS7 Percent change from baseline Median", "setting": "Week 7, 400 mg BID, Omalizumab-Naïve", "result": "−48.28", "unit": "%"}, {"measurement": "UAS7 Change from baseline Mean (SD)", "setting": "[1]", "result": "−20.40 (19.58)"}, {"measurement": "UAS7 Change from baseline Median", "setting": "[1]", "result": "−25.00"}, {"measurement": "UAS7 Mean (SD)", "setting": "[1]", "result": "11.60 (15.79)"}, {"measurement": "UAS7 Median", "setting": "[1]", "result": 2.00}, {"measurement": "UAS7 Percent change from baseline Mean (SD)", "setting": "[1]", "result": "−58.52 (53.51) %"}, {"measurement": "UAS7 Percent change from baseline Median", "setting": "[1]", "result": "−92.59", "unit": "%"}, {"measurement": "Non-responder, UAS7 reduction from baseline of 10 points or more", "setting": "[2]", "result": "15 (42.9) n (%)"}, {"measurement": "OR for rilzabrutinib vs. placebo, UAS7 reduction of 10 points or more", "setting": "[2]", "result": 2.154}, {"measurement": "RRD (%) for rilzabrutinib vs. placebo, UAS7 reduction of 10 points or more", "setting": "[2]", "result": 18.5, "unit": "%"}, {"measurement": "Responder, UAS7 reduction from baseline of 10 points or more", "setting": "[2]", "result": "20 (57.1) n (%)"}, {"measurement": "Non-responder, UAS7 reduction from baseline of 10 points or more", "setting": "[3]", "result": "22 (57.9) n (%)"}, {"measurement": "OR for rilzabrutinib vs. placebo, UAS7 reduction of 10 points or more", "setting": "[3]", "result": 1.159}, {"measurement": "RRD (%) for rilzabrutinib vs. placebo, UAS7 reduction of 10 points or more", "setting": "[3]", "result": 3.5, "unit": "%"}, {"measurement": "Responder, UAS7 reduction from baseline of 10 points or more", "setting": "[3]", "result": "16 (42.1) n (%)"}, {"measurement": "UAS7 Change from baseline Mean (SD)", "setting": "[4]", "result": "−10.92 (10.06)"}, {"measurement": "UAS7 Change from baseline Median", "setting": "[4]", "result": "−9.00"}, {"measurement": "UAS7 Mean (SD)", "setting": "[4]", "result": "21.11 (10.03)"}, {"measurement": "UAS7 Median", "setting": "[4]", "result": 18.20}, {"measurement": "UAS7 Percent change from baseline Mean (SD)", "setting": "[4]", "result": "−33.33 (28.49) %"}, {"measurement": "UAS7 Percent change from baseline Median", "setting": "[4]", "result": "−36.11", "unit": "%"}, {"measurement": "UAS7 Change from baseline Mean (SD)", "setting": "[5]", "result": "−24.00 (NC)"}, {"measurement": "UAS7 Change from baseline Median", "setting": "[5]", "result": "−24.00"}, {"measurement": "UAS7 Mean (SD)", "setting": "[5]", "result": "17.00 (NC)"}, {"measurement": "UAS7 Median", "setting": "[5]", "result": 17.00}, {"measurement": "UAS7 Percent change from baseline Mean (SD)", "setting": "[5]", "result": "−58.54 (NC) %"}, {"measurement": "UAS7 Percent change from baseline Median", "setting": "[5]", "result": "−58.54", "unit": "%"}, {"measurement": "Non-responder, UAS7 reduction from baseline of 10 points or more", "setting": "[6]", "result": "22 (59.5) n (%)"}, {"measurement": "OR for rilzabrutinib vs. placebo, UAS7 reduction of 10 points or more", "setting": "[6]", "result": 1.096}, {"measurement": "RRD (%) for rilzabrutinib vs. placebo, UAS7 reduction of 10 points or more", "setting": "[6]", "result": 2.2, "unit": "%"}, {"measurement": "Responder, UAS7 reduction from baseline of 10 points or more", "setting": "[6]", "result": "15 (40.5) n (%)"}, {"measurement": "Non-responder, UAS7 reduction from baseline of 10 points or more", "setting": "[7]", "result": "16 (39.0) n (%)"}, {"measurement": "OR for rilzabrutinib vs. placebo, UAS7 reduction of 10 points or more", "setting": "[7]", "result": 2.334}, {"measurement": "RRD (%) for rilzabrutinib vs. placebo, UAS7 reduction of 10 points or more", "setting": "[7]", "result": 18.7, "unit": "%"}, {"measurement": "Responder, UAS7 reduction from baseline of 10 points or more", "setting": "[7]", "result": "25 (61.0) n (%)"}, {"measurement": "UAS7 Change from baseline Median", "setting": "[8]", "result": "−15.00"}, {"measurement": "UAS7 Mean (SD)", "setting": "[8]", "result": "13.54 (9.34)"}, {"measurement": "UAS7 Median", "setting": "[8]", "result": 14.00}, {"measurement": "UAS7 Percent change from baseline Mean (SD)", "setting": "[8]", "result": "−54.22 (30.59) %"}, {"measurement": "UAS7 Percent change from baseline Median", "setting": "[8]", "result": "−52.50", "unit": "%"}, {"measurement": "UAS7 Change from baseline Mean (SD)", "setting": "[9]", "result": "−20.86 (14.89)"}, {"measurement": "UAS7 Change from baseline Median", "setting": "[9]", "result": "−16.00"}, {"measurement": "UAS7 Mean (SD)", "setting": "[9]", "result": "12.17 (10.21)"}, {"measurement": "UAS7 Percent change from baseline Mean (SD)", "setting": "[9]", "result": "−58.95 (28.44) %"}, {"measurement": "UAS7 Percent change from baseline Median", "setting": "[9]", "result": "−51.29", "unit": "%"}, {"measurement": "Non-responder, UAS7 reduction from baseline of 10 points or more", "setting": "[10]", "result": "13 (37.1) n (%)"}, {"measurement": "OR for rilzabrutinib vs. placebo, UAS7 reduction of 10 points or more", "setting": "[10]", "result": 2.765}, {"measurement": "RRD (%) for rilzabrutinib vs. placebo, UAS7 reduction of 10 points or more", "setting": "[10]", "result": 22.3, "unit": "%"}, {"measurement": "Responder, UAS7 reduction from baseline of 10 points or more", "setting": "[10]", "result": "22 (62.9) n (%)"}, {"measurement": "Non-responder, UAS7 reduction from baseline of 10 points or more", "setting": "[11]", "result": "17 (41.5) n (%)"}, {"measurement": "OR for rilzabrutinib vs. placebo, UAS7 reduction of 10 points or more", "setting": "[11]", "result": 1.985}, {"measurement": "RRD (%) for rilzabrutinib vs. placebo, UAS7 reduction of 10 points or more", "setting": "[11]", "result": 17.5, "unit": "%"}, {"measurement": "Responder, UAS7 reduction from baseline of 10 points or more", "setting": "[11]", "result": "24 (58.5) n (%)"}, {"measurement": "UAS7 Change from baseline Mean (SD)", "setting": "[12]", "result": "−15.64 (11.76)"}, {"measurement": "UAS7 Change from baseline Median", "setting": "[12]", "result": "−16.00"}, {"measurement": "UAS7 Mean (SD)", "setting": "[12]", "result": "13.98 (13.06)"}, {"measurement": "UAS7 Median", "setting": "[12]", "result": 10.00}, {"measurement": "UAS7 Percent change from baseline Mean (SD)", "setting": "[12]", "result": "−54.37 (38.23) %"}, {"measurement": "UAS7 Percent change from baseline Median", "setting": "[12]", "result": "−64.29", "unit": "%"}, {"measurement": "UAS7 Change from baseline Mean (SD)", "setting": "[13]", "result": "−21.00 (19.13)"}, {"measurement": "UAS7 Change from baseline Median", "setting": "[13]", "result": "−26.00"}, {"measurement": "UAS7 Mean (SD)", "setting": "[13]", "result": "11.00 (15.67)"}, {"measurement": "UAS7 Median", "setting": "[13]", "result": 1.00}, {"measurement": "UAS7 Percent change from baseline Mean (SD)", "setting": "[13]", "result": "−61.16 (51.62) %"}, {"measurement": "UAS7 Percent change from baseline Median", "setting": "[13]", "result": "−96.30", "unit": "%"}, {"measurement": "Non-responder, UAS7 reduction from baseline of 10 points or more", "setting": "[14]", "result": "14 (40.0) n (%)"}, {"measurement": "OR for rilzabrutinib vs. placebo, UAS7 reduction of 10 points or more", "setting": "[14]", "result": 2.484}]}
